Laboratory results as given in paper PMC9137512 (Antibiotics, 2022).

Legend:
clinical = conditions: for level at 192 h: iv
Description: The samples were subsequently analyzed according to the described method. […] The patients’ estimated glomerular filtration (eGFR) was calculated by the chronic kidney disease epidemiology collaboration equation (CKD–EPI). The AUC was calculated using the trapezoidal rule.
(§1) Subsequently, samples were mixed for 10 s, stored in an ultrasonic bath for 10 min at 40 °C, then centrifuged at 8000× g for 5 min. Next, 100 µL of the resulting supernatant was further diluted with 500 µL water with 0.1% formic acid. […] Details are described in the Supplementary Materials (Figures S1–S3).
An aliquot of 20 µL was injected onto the HPLC–UV system equipped with a diode array detector (Nexera-I 3D plus, Shimadzu, Duisburg, Germany). Chromatographic analysis was performed using a reversed phase column Shim-pack XR-ODS III with 2.2 µm particle size (150 mm × 2 mm, Shimadzu, Duisburg, Germany) in combination with a column guard (Shim-pack GISS-H (G) C18, 3 µm; 10 mm × 2.1 mm, Shimadzu, Duisburg, Germany). Separation was performed using a gradient of 0.1% formic acid in acetonitrile and 0.1% formic acid in water with a flow rate of 0.35 mL/min. The autosampler and column were set at temperatures of 10 °C and 45 °C, respectively.

[1] = Free dalbavancin in patient serum by solid phase extraction with a centrifugal device (Nanosep); assay type: in vivo, human; conditions: for fcmax(d1) *: day 1 peak; for fcmax(d1) * / fcmin(d8) *: free concentration determined by solid phase extraction (Nanosep); for fcmin(d8) *: day 8 trough; for fAUC(d8) *: from free concentration by solid phase extraction (Nanosep)
Description: The AUC was calculated using the trapezoidal rule.

[2] = Free concentration and protein binding in spiked human serum samples (Table S5)
Description: as §1
Table S5. […] In order to evaluate the
(a) Spiked human serum samples of 14 patients (8 critically ill and 6 non-critically ill) after calibration with sheep serum.
(b) Spiked human serum samples of 9 critically ill patients and 6 healthy volunteers after calibration with human serum.

[3] = S5a, serum of patient 2 (critically ill) spiked 200 mg/L, measured c 207 mg/L, calibration with sheep serum
[4] = S5a, serum of patient 3 (critically ill) spiked 50 mg/L, measured c 51.2 mg/L, calibration with sheep serum
[5] = S5b, serum of 26 (healthy volunteer) spiked 200 mg/L, measured c 219 mg/L, calibration with human serum
[6] = S5b, serum of 27 (healthy volunteer) spiked 50 mg/L, measured c 52.5 mg/L, calibration with human serum
[7] = S5b, serum of 27 (healthy volunteer) spiked 200 mg/L, measured c 220 mg/L, calibration with human serum
[8] = S5b, serum of 28 (healthy volunteer) spiked 50 mg/L, measured c 49.1 mg/L, calibration with human serum
[9] = S5b, serum of 28 (healthy volunteer) spiked 200 mg/L, measured c 199 mg/L, calibration with human serum
[10] = S5b, serum of 29 (healthy volunteer) spiked 50 mg/L, measured c 52.0 mg/L, calibration with human serum

SMILES: CN[C@H]1C(=O)N[C@@H]2Cc3ccc(cc3)Oc3cc4cc(c3O[C@@H]3O[C@H](C(=O)O)[C@@H](O)[C@H](O)[C@H]3NC(=O)CCCCCCCCC(C)C)Oc3ccc(cc3Cl)[C@@H](O)[C@@H]3NC(=O)[C@H](NC(=O)[C@@H]4NC(=O)[C@@H](NC2=O)c2cc(cc(O)c2Cl)Oc2cc1ccc2O)c1ccc(O)c(c1)-c1c(O[C@H]2O[C@H](CO)[C@@H](O)[C@H](O)[C@@H]2O)cc(O)cc1[C@@H](C(=O)NCCCN(C)C)NC3=O [dalbavancin, Dalbavancin]
- Cmax (clinical; human, in vivo, 1500 mg, cmax(d1)): 278000 ng/mL
- level at 192 h (clinical; human, in vivo, 1500 mg, cmin(d8)): 44900 ng/mL
- level at 192 h (clinical; human, in vivo, trough concentrations on day 8 before redosing): 23000 to 44900 ng/mL
- peak concentrations after the initial dosing (clinical; range of three cardiologic patients, total serum): 201 to 278 mg/L
- maximum free fraction at total concentrations below the LOQ of 12.5 mg/L ([1]; in accordance with the higher protein binding observed): 0.4 mg/L
- fcmax(d1) * ([1]; patient 1, 1500 mg): 5.4 mg/L
- fcmin(d8) * ([1]; patient 1, 1500 mg): 1.3 mg/L
- fAUC(d8) * ([1]; patient 1, 1500 mg): 31200 ng·h/mL
- fcmax(d1) * ([1]; patient 2, 1500 mg): 6.4 mg/L
- fcmin(d8) * ([1]; patient 2, 1500 mg): 1.0 mg/L
- fAUC(d8) * ([1]; patient 2, 1500 mg): 24000 ng·h/mL
- fcmax(d1) * ([1]; patient 3, 1500 mg): 6.7 mg/L
- fcmin(d8) * ([1]; patient 3, 1500 mg): <1.0 mg/L
- fAUC(d8) * ([1]; patient 3, 1500 mg): <24000 ng·h/mL
- fc ([2]; S5a, serum of patient 1 (critically ill) spiked 50 mg/L, measured c 53.5 mg/L, Nanosep SPE, HPLC-UV, calibration with sheep serum): 1.4 mg/L
- fc ([2]; S5a, serum of patient 1 (critically ill) spiked 200 mg/L, measured c 201 mg/L, calibration with sheep serum): 7.6 mg/L
- fc ([2]; S5a, serum of patient 2 (critically ill) spiked 50 mg/L, measured c 53.6 mg/L, calibration with sheep serum): 1.7 mg/L
- PB [2, 3]: 96%
- fc [2, 3]: 9.0 mg/L
- PB [2, 4]: 96%
- fc [2, 4]: 1.9 mg/L
- fc ([2]; S5a, serum of patient 3 (critically ill) spiked 200 mg/L, measured c 209 mg/L, calibration with sheep serum): 9.1 mg/L
- fc ([2]; S5a, serum of patient 4 (critically ill) spiked 50 mg/L, measured c 54.2 mg/L, calibration with sheep serum): 1.6 mg/L
- fc ([2]; S5a, serum of patient 4 (critically ill) spiked 200 mg/L, measured c 212 mg/L, calibration with sheep serum): 7.7 mg/L
- fc ([2]; S5a, serum of patient 5 (critically ill) spiked 50 mg/L, measured c 53.0 mg/L, calibration with sheep serum): 2.1 mg/L
- fc ([2]; S5a, serum of patient 5 (critically ill) spiked 200 mg/L, measured c 203 mg/L, calibration with sheep serum): 9.5 mg/L
- fc ([2]; S5a, serum of patient 6 (critically ill) spiked 50 mg/L, measured c 50.4 mg/L, calibration with sheep serum): 1.5 mg/L
- fc ([2]; S5a, serum of patient 6 (critically ill) spiked 200 mg/L, measured c 204 mg/L, calibration with sheep serum): 9.2 mg/L
- fc ([2]; S5a, serum of patient 7 (critically ill) spiked 50 mg/L, measured c 49.1 mg/L, calibration with sheep serum): 2.4 mg/L
- fc ([2]; S5a, serum of patient 7 (critically ill) spiked 200 mg/L, measured c 195 mg/L, calibration with sheep serum): 10.2 mg/L
- fc ([2]; S5a, serum of patient 8 (critically ill) spiked 50 mg/L, measured c 54.3 mg/L, calibration with sheep serum): 1.8 mg/L
- fc ([2]; S5a, serum of patient 8 (critically ill) spiked 200 mg/L, measured c 201 mg/L, calibration with sheep serum): 8.7 mg/L
- fc ([2]; S5a, serum of patient 9 (non-critically ill) spiked 50 mg/L, measured c 40.0 mg/L, calibration with sheep serum): < 1.0 mg/L
- fc ([2]; S5a, serum of patient 9 (non-critically ill) spiked 200 mg/L, measured c 177 mg/L, calibration with sheep serum): 3.7 mg/L
- fc ([2]; S5a, serum of patient 10 (non-critically ill) spiked 50 mg/L, measured c 47.8 mg/L, calibration with sheep serum): < 1.0 mg/L
- fc ([2]; S5a, serum of patient 10 (non-critically ill) spiked 200 mg/L, measured c 180 mg/L, calibration with sheep serum): 4.0 mg/L
- fc ([2]; S5a, serum of patient 11 (non-critically ill) spiked 50 mg/L, measured c 38.6 mg/L, calibration with sheep serum): < 1.0 mg/L
- fc ([2]; S5a, serum of patient 11 (non-critically ill) spiked 200 mg/L, measured c 177 mg/L, calibration with sheep serum): 3.5 mg/L
- fc ([2]; S5a, serum of patient 12 (non-critically ill) spiked 50 mg/L, measured c 42.6 mg/L, calibration with sheep serum): < 1.0 mg/L
- fc ([2]; S5a, serum of patient 12 (non-critically ill) spiked 200 mg/L, measured c 195 mg/L, calibration with sheep serum): 3.9 mg/L
- fc ([2]; S5a, serum of patient 13 (non-critically ill) spiked 50 mg/L, measured c 53.0 mg/L, calibration with sheep serum): 1.1 mg/L
- fc ([2]; S5a, serum of patient 13 (non-critically ill) spiked 200 mg/L, measured c 214 mg/L, calibration with sheep serum): 6.3 mg/L
- fc ([2]; S5a, serum of patient 14 (non-critically ill) spiked 50 mg/L, measured c 50.0 mg/L, calibration with sheep serum): 1.1 mg/L
- fc ([2]; S5a, serum of patient 14 (non-critically ill) spiked 200 mg/L, measured c 208 mg/L, calibration with sheep serum): 4.6 mg/L
- fc ([2]; S5b, serum of 24 (healthy volunteer) spiked 50 mg/L, measured c 46.1 mg/L, calibration with human serum): 1.6 mg/L
- fc ([2]; S5b, serum of 24 (healthy volunteer) spiked 200 mg/L, measured c 184 mg/L, calibration with human serum): 4.6 mg/L
- fc ([2]; S5b, serum of 25 (healthy volunteer) spiked 50 mg/L, measured c 45.8 mg/L, calibration with human serum): 1.6 mg/L
- fc ([2]; S5b, serum of 25 (healthy volunteer) spiked 200 mg/L, measured c 197 mg/L, calibration with human serum): 5.8 mg/L
- fc ([2]; S5b, serum of 26 (healthy volunteer) spiked 50 mg/L, measured c 52.6 mg/L, calibration with human serum): 1.6 mg/L
- PB [2, 5]: 97%
- fc [2, 5]: 5.2 mg/L
- PB [2, 6]: 97%
- fc [2, 6]: 1.7 mg/L
- PB [2, 7]: 97%
- fc [2, 7]: 5.1 mg/L
- PB [2, 8]: 97%
- fc [2, 8]: 1.6 mg/L
- PB [2, 9]: 98%
- fc [2, 9]: 4.8 mg/L
- PB [2, 10]: 97%
- fc [2, 10]: 1.4 mg/L
- PB ([2]; S5b, serum of 29 (healthy volunteer) spiked 200 mg/L, measured c 207 mg/L, calibration with human serum): 98%
